Test results published in patent publication US11446265B2, “Reagents, compositions and methods for improving viability and function of cells, tissues and organs” (TARGA BIOMEDICAL, priority 2016, dated 2022).

Legend:
[1] = tested on: human mesenchymal stem cells (hMSC); test: mRNA expression in hMSC by real-time PCR; type: cell-based; conditions: FIGS. 25A, 25B, 26A to 26D
Source text: FIG. 25A is a table representing mRNA expression of selected genes measured by real-time PCR in human mesenchymal stem cells (hMSC) conditioned with Celastrol alone or in combination with selected adjunct agents. Results are expressed as fold change versus Vehicle-treated cells.
FIG. 25B is a table representing mRNA expression of selected genes measured by real-time PCR in human mesenchymal stem cells (hMSC) conditioned with selected Celastrol analogs alone or in combination with selected adjunct agents. Results are expressed as fold change versus Vehicle-treated cells.
Results are expressed as fold change versus Vehicle-treated cells. (Arbitrary angiogenic index: (VEGFa+FGF2+SDF1)*2) (A=Additive effect; S=Synergistic effect).
(§1) To test the second main condition, MSCs were treated with the candidate pharmaco-optimizers for 1 hour, followed by 3 hours washout period. Cell mRNA was extracted and expression of genes of interest was quantified by real time PCR. In additional MSC cultures, cells were treated for one hour, washed and cultured in low serum media for 24 hours. The media containing paracrine factors secreted by MSCs was then placed in contact with H9c2 cardiomyoblast cell line. H9c2 cells were then submitted to the hypoxia/serum starvation (<1% O2 in hypoxia chamber in low serum media for 48 hours) or oxidative stress (incubation in media for 1 hour spiked with 0-1 mM H2O2). Viability status of H9c2 cells was evaluated using the LIVE/DEAD assay as detailed above.

H9c2 cardiomyoblasts [2] = test: H9c2 viability under hypoxia/serum starvation (LIVE/DEAD); type: cell-based, rat; conditions: 1 uM
Description: For survival to hypoxic challenge and oxidative challenge, H9c2 cardiomyoblasts are submitted to the hypoxia/serum starvation (<1% O2 in hypoxia chamber in low serum media for 48 hours) or oxidative stress (incubation in media for 1 hour spiked with 0-1 mM H2O2). Viability status of H9c2 cells was evaluated using the LIVE/DEAD assay.

H9c2 cardiomyoblasts [3] = test: H9c2 viability under hypoxia/reoxygenation stress; type: cell-based, rat; conditions: 1 uM
Description: Next, the hypoxia/reoxygenation challenge is performed. Briefly, viability analysis was performed in rat H9c2 cardiomyoblasts as previously reported. For hypoxia/reoxygenation stress, cells were cultured in DMEM no glucose (Life Technologies), serum starved and placed in hypoxic conditions (<1% O2) for 18 h. At reoxygenation (normoxic conditions), cells were treated with Celastrol (10^−10 to 10^−6 mol/L, Cayman Chemical, Ann Arbor, Mich.), Celastrol analogs or vehicle (Dimethyl sulfoxide (DMSO), Sigma-Aldrich Canada, Oakville, ON; final concentration<1% v/v) in DMEM high glucose 1% FBS for 1 h, then reoxygenation was continued in DMEM high glucose for an additional 5 h.

isolated perfused heart = tested on: isolated perfused heart; set-up: species or system rat
[4] = Rat myocardial ischemia/reperfusion in vivo, echocardiography at 24 h; conditions: 1 mg/Kg intraventricular, vs Vehicle
Description: Rats were randomly assigned to the following groups: Sham (n=6), Vehicle (n=8), Celastrol 1 mg/Kg (n=6) or Celastrol analogs. Under 2% isoflurane anesthesia, baseline echocardiography using a Sonos 5500 Imaging System (Philips, Philips Healthcare, Andover, Mass., USA) with a 12 MHz transducer was performed as described^12. All measures were acquired by the same experienced observer, blinded to the treatment. For each measurement, three to five cardiac cycles were analysed and averaged.
After echocardiography, the animal was intubated and mechanically ventilated, then bupivacaine 2 mg/kg was injected, and a left thoracotomy was performed, exposing the heart. Using a 5-0 silk slipknot, an occlusion of the left anterior descending coronary artery was performed. Visual blanching and electrocardiographic changes confirmed myocardial ischemia. In Sham animals, suture was not ligated. After 30 minutes, the suture occlusion was released. Celastrol, Celastrol analogs or vehicle was injected intraventricularly for acute systemic delivery, then the chest was closed. Buprenorfine (0.05 mg/Kg sc) and carprofen (5 mg/Kg sc) were injected at the end of surgery. Animals were left to recuperate for 24 h, then a second echocardiography was performed. Animals were sacrificed, cardiac tissue was snap frozen, and blood was collected in heparinized tubes, then centrifuged at 4° C. Plasma was collected, snap frozen and kept at −80° C. until analysis.

[5] = tested on: heat shock response (HSR); test: Heat shock response luciferase reporter assay in H9c2; type: cell-based, rat; conditions: H9c2, 10E-5 to 10E-10M, 4 hours, 3 hours washout
Description: (§2) H9c2 rat cardiomyoblasts were seeded at a density of 5,000 cells per well in 96 well plates in DMEM 10% FBS complete medium and transfected using lipofectamine with the Cignal Reporter Assay Heat shock response and Antioxidant response kits (SABiosciences, Qiagen) according to the manufacturers' protocol.

[6] = tested on: antioxidant responsive elements (ARE); test: Antioxidant response luciferase reporter assay in H9c2; type: cell-based, rat; conditions: H9c2, 10E-5 to 10E-10M, 4 hours, 3 hours washout
Description: as §2

human MSCs = test: Screen of compounds for viability of human MSCs under hypoxic stress; type: cell-based; conditions: FIG. 1
Description: In an attempt to identify conditioning compounds that are able to ensure in vivo cellular viability, based on preliminary evidence using Celastrol, over a dozen compounds with structural similarities identified through literature and the Sigma-Aldrich® Structure Search online tool, were screened. The compounds' capacity to improve viability of human MSCs challenged to hypoxic stress was measured. The molecules that were screened, most of which are natural compounds, can be classified as triterpenoids, limonoids, withanolides, sterols, isoprenoides/ diterpenes and flavonoids. Classical HSP90 inhibitors were also added to the screen, such as Radicicol that directly target the ATP binding pocket at the NT region of HSP90^9 (NT inhibitor). […] 28; 42(2):260-6.^10Patwardhan C. A. et al., J Biol Chem. 2013 Mar. 8; 288(10):7313-25.^11Sreeramulu S. et al., Angew Chem Int Ed Engl. 2009; 48(32):5853-5.^12Gu M., et al. Invest New Drugs. 2014 Feb.;32(1):68-74.

[7] = tested on: rat mesenchymal stem cells (rMSC); test: rMSC viability after hypoxia/serum starvation (LIVE/DEAD); type: cell-based; conditions: 1-hour treatment, compound alone
Description: (§3) To test the first main condition, MSCs (either sourced from rat or humans) were treated with the candidate pharmaco-optimizers, washed and submitted to hypoxia/serum starvation (<1% O2 in hypoxia chamber in low serum media for 48-72 hours) or oxidative stress (incubation in media for 1 hour spiked with 0-2 mM H2O2), which mimic the major lethal stressors present in the ischemic transplant microenvironment. Viability status of cells are assessed using the LIVE/DEAD viability/cytotoxicity kit (Life Technologies™) and results are quantified by Operetta high content screening (HCS) apparatus equipped with Harmony automated analysis software (Perkin Elmer™).

[8] = tested on: H9c2 cardiomyoblast cell line; test: H9c2 viability in hypoxia after pre-conditioning with media from treated rMSC (paracrine); type: cell-based, rat; conditions: 48-hour pre-conditioning with media from treated rMSC; Gedunin high dose
Description: as §1

[9] = tested on: rat mesenchymal stem cells (rMSC); test: rMSC viability after oxidative stress (H2O2, LIVE/DEAD); type: cell-based; conditions: 1-hour treatment, compound alone
Description: as §3

H9c2 cells = test: H9c2 viability in oxidative stress after pre-conditioning with media from treated rMSC (paracrine); type: cell-based, rat; conditions: 24-hour preconditioning with media from treated rMSC
Description: as §1

[10] = tested on: rat mesenchymal stem cells (rMSC); test: mRNA expression in rMSC by real time PCR; type: cell-based; conditions: rMSC, 1-hour treatment and 3-hour washout, co-treatment with EGCG or tBHQ
Description: as §1
Combination Treatments Tested—First Experiment: Celastrol (1 μM) or Gedunin (1 μM)+EGCG (1 μM, 10 μM) or TBHQ (1 μM, 5 μM)

[11] = 10^−8 mol/L dose, vs Vehicle (DMSO)

Row | SMILES | ranking as HSP90 inhibitor from expression of HSPs, growth factors, antioxidant proteins/enzymes, cytokines, matrix remodeling proteins [1] | protection of H9c2 cardiomyoblasts from hypoxia (H9c2 cardiomyoblasts [2]) | protection of H9c2 cardiomyoblasts from hypoxia/reoxygenation stress (H9c2 cardiomyoblasts [3]) | infarct area measured by TTC stain (isolated perfused heart) | Coronary reserve flow (CRF) (isolated perfused heart; [11]) | I/R-induced systolic dysfunction (+/−dP/dt, generated pressure, EDP, contractility index) (isolated perfused heart; [11]) | high sensitivity troponin T (TNT-hs) release (isolated perfused heart; [11]) | cardiac output (CO) following I/R injury [4] | ejection fraction (EF) following I/R injury [4] | fractional shortening (FS) following I/R injury [4] | stroke volume (SV) following I/R injury [4] | stimulation of reporter gene controlled by heat shock responsive elements (HSR) [5] | stimulation of reporter gene controlled by antioxidant responsive elements (ARE) [6] | capacity to improve viability of human MSCs challenged to hypoxic stress (human MSCs) | protection of rMSCs from 48-hour hypoxia induced cell death [7] | protection of H9c2 from 48-hour hypoxia-induced cell death (paracrine) [8] | protection of rMSCs from oxidative stress induced death [9] | protection of H9c2 cells from oxidative stress induced death (paracrine) (H9c2 cells) | IL-1β mRNA expression induced by EGCG and tBHQ [10]
1 | CC1=C(O)C(=O)C=C2C1=CC=C1[C@@]2(C)CC[C@@]2(C)[C@@H]3C[C@](C)(C(N)=O)CC[C@]3(C)CC[C@]12C [Analog 1] | best HSP90 inhibitors | effective | effective | significantly reduced | preserved | protected the heart from I/R-induced systolic dysfunction | significantly reduced | preserving | preserving | preserving | preserving | among the most potent and efficient compounds tested | among the most potent and efficient compounds tested |  |  |  |  |  | 
2 | CC(=O)O[C@@H]1C[C@H]2C(C)(C)C(=O)C=C[C@]2(C)[C@H]2CC[C@@]3(C)[C@H](c4ccoc4)OC(=O)[C@H]4O[C@]43[C@@]21C [Gedunin] |  |  |  |  |  |  |  |  |  |  |  |  |  | top scoring | protect | protects | protect treated cells from oxidative stress-induced death | protects | downregulate
3 | C[C@@H]1C[C@H]2O[C@@H]2/C=C\C=C\C(=O)Cc2c(Cl)c(O)cc(O)c2C(=O)O1 [Radicicol] |  |  |  |  |  |  |  |  |  |  |  |  |  |  | protect | does not produce a mediator for paracrine efficacy | not | no protection | 
